Laboratory results as given in patent publication US9856279B2 (AGIOS PHARMACEUTICALS, INC, priority 2011, dated 2018).
pIC50: −log10 of the molar value.

Experiments:
U87MG cells = experiment: Cellular assay for IDH1m inhibitors: inhibition of 2-HG production (LC-MS, 48 hours) in U87MG cells; format: cell-based; conditions: Homo sapiens, U-87 MG, inhibition of 2-HG production, U87R132H cells; read-out: U87R132H IC50
Summary of the method: (§1)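 Read-out: 2-HG in culture medium by LC-MS after 48 h compound exposure; IC50 = 50% reduction vs DMSO control. Cells plated 5000/well in DMEM/10% FBS, 37 °C, 5% CO2; DMSO 0.2% final.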

IDH1 R132H = IDH1 R132H (Homo sapiens, UniProt O75874, R132H); experiment: Assay for IDH1 R132H inhibitors (NADPH/aKG, resazurin detection); format: biochemical; conditions: enzyme assay of Example 12; read-out: IDH1R132H IC50
IDH1 R132H, sequence (O75874 whole entry R132H): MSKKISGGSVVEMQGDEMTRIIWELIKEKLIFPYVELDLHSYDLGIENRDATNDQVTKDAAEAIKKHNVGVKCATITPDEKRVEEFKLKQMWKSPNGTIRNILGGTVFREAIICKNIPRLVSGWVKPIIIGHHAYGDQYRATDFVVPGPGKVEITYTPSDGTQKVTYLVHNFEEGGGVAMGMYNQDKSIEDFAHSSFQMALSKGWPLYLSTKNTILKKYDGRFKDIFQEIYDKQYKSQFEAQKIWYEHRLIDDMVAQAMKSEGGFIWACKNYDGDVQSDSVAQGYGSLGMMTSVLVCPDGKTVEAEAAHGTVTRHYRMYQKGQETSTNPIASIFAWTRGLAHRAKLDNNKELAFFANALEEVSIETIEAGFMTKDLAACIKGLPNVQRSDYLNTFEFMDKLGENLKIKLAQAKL
Summary of the method: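 Read-out is resorufin fluorescence (Ex544/Em590) 5 min after adding a 30 μM resazurin detection mix. Before that, mutant enzyme (0.2 μg/ml in its mix) ran 50 min at room temperature with compound, 8 uM NADPH and 2 mM aKG (mix levels) in Tris pH 7.5 with NaCl, MgCl2, BSA.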

HT1080 cells = experiment: Cellular assay for IDH1m inhibitors: inhibition of 2-HG production (LC-MS, 48 hours) in HT1080 cells; format: cell-based; conditions: Homo sapiens, HT-1080; inhibition of 2-HG production, HT1080 cells; read-out: HT1080 IC50
Summary of the method: as §1

Row | SMILES | pIC50 (U87MG cells) | pIC50 (IDH1 R132H) | pIC50 (HT1080 cells)
1 | COCCC(=O)N1CCN(c2nc(C3CC3)c(-c3ccc4[nH]ncc4c3)cc2C#N)C[C@H]1C [Compound 295, (R)-6-cyclopropyl-5-(1H-indazol-5-yl)-2-(4-(3-methoxypropanoyl)-3-methylpiperazin-1-yl)nicotinonitrile] | 6.00 to 6.30 | > 6.30 | 6.00 to 6.30
2 | C=Cc1cc(Nc2cc(C#N)c(N3CCN(C(=O)CCO)[C@H](C(C)C)C3)nc2C2CC2)ccn1 [Compound 754, (R)-6-cyclopropyl-2-(4-(3-hydroxypropanoyl)-3-isopropylpiperazin-1-yl)-5-(2-vinylpyridin-4-ylamino)nicotinonitrile] | > 6.30 | > 6.30 | > 6.30
3 | COCCC(=O)N1CCN(c2nc(C3CC3)c(OC(C)c3ccncc3)cc2C#N)C[C@H]1C (stereo partly drawn) [Compound 388, 6-cyclopropyl-2-((R)-4-(3-methoxypropanoyl)-3-methylpiperazin-1-yl)-5-(1-(pyridin-4-yl)ethoxy)nicotinonitrile] | 6.00 to 6.30 | > 6.30 | 5.00 to 6.00
4 | C=Cc1cc(-c2cc(C#N)c(N3CCN(C(=O)CCO)[C@H](C(C)C)C3)nc2C2CC2)c2ccncc2n1 [Compound 681, (R)-6-cyclopropyl-2-(4-(3-hydroxypropanoyl)-3-isopropylpiperazin-1-yl)-5-(2-vinyl-1,7-naphthyridin-4-yl)nicotinonitrile] | > 6.30 | > 6.30 | > 6.30
5 | COCCC(=O)N1CCN(c2nc(C3CC3)c(Nc3ccnc(Cl)c3)cc2C#N)C[C@H]1C [Compound 643, (R)-5-((2-chloropyridin-4-yl)amino)-6-cyclopropyl-2-(4-(3-methoxypropanoyl)-3-methylpiperazin-1-yl)nicotinonitrile] | 6.00 to 6.30 | > 6.30 | > 6.30
6 | C=Cc1cc(-c2cc(C#N)c(N3CCN(C(=O)C4CC4)[C@H](C)C3)nc2C2CC2)ccn1 [Compound 443, (R)-6-(4-(cyclopropanecarbonyl)-3-methylpiperazin-1-yl)-2-cyclopropyl-2′-vinyl-3,4′-bipyridine-5-carbonitrile] | > 6.30 | > 6.30 | > 6.30
7 | CCOC1CC1C(=O)N1CCN(c2nc(C3CC3)c(-c3cccc4cnccc34)cc2C#N)C[C@H]1C1CC1 (stereo partly drawn) [Compound 481] | > 6.30 | > 6.30 | > 6.30
8 | COCCC(=O)N1CCN(c2nc(C3CC3)c(Nc3cc(C#N)ccn3)cc2C#N)C[C@H]1C1CC1 [Compound 792, (R)-5-(4-cyanopyridin-2-ylamino)-6-cyclopropyl-2-(3-cyclopropyl-4-(3-methoxypropanoyl)piperazin-1-yl)nicotinonitrile] | 5.00 to 6.00 | > 6.30 | 5.00 to 6.00
9 | COCCC(=O)N1CCN(c2nc(C3CC3)c(-c3cccc4c[n+]([O-])ccc34)cc2C#N)C[C@H]1C [Compound 420, (R)-5-(5-cyano-2-cyclopropyl-6-(4-(3-methoxypropanoyl)-3-methylpiperazin-1-yl)pyridin-3-yl)isoquinoline 2-oxide] | 5.00 to 6.00 | > 6.30 | 5.00 to 6.00
10 | COCCC(=O)N1CCN(c2nc(C3CC3)c(-c3cccc(C#N)c3)cc2C#N)C[C@H]1C [Compound 283, (R)-5-(3-cyanophenyl)-6-cyclopropyl-2-(4-(3-methoxypropanoyl)-3-methylpiperazin-1-yl)nicotinonitrile] | 5.00 to 6.00 | > 6.30 | 6.00 to 6.30
11 | C[C@@H]1CN(c2nc(C3CC3)c(-c3cccc4cnccc34)cc2C#N)CCN1C(=O)CC(F)(F)F [Compound 386, (R)-6-cyclopropyl-5-(isoquinolin-5-yl)-2-(3-methyl-4-(3,3,3-trifluoropropanoyl)piperazin-1-yl)nicotinonitrile] | 6.00 to 6.30 | > 6.30 | 5.00 to 6.00

The remaining lines, values ahead:

Row | pIC50 (U87MG cells) | pIC50 (IDH1 R132H) | pIC50 (HT1080 cells) | SMILES
12 | 6.00 to 6.30 | > 6.30 | 6.00 to 6.30 | COCCC(=O)N1CCN(c2nc(C3CC3)c(-c3ccc(OC)c(F)c3)c(C)c2C#N)C[C@H]1C [Compound 323, (R)-6-cyclopropyl-5-(3-fluoro-4-methoxy-phenyl)-2-[4-(3-methoxy-propionyl)-3-methyl-piperazin-1-yl]-4-methyl-nicotinonitrile]
13 | 5.00 to 6.00 | > 6.30 | 5.00 to 6.00 | C=CS(=O)(=O)N(c1cccc(-c2cc(C#N)c(N3CCN(C(=O)C4CC4)[C@H](C4CC4)C3)nc2C2CC2)c1)S(=O)(=O)C=C [Compound 452, (R)—N-(3-(5-cyano-6-(4-(cyclopropanecarbonyl)-3-cyclopropylpiperazin-1-yl)-2-cyclopropylpyridin-3-yl)phenyl)-N-(vinylsulfonyl)ethenesulfonamide]
14 | > 6.30 | > 6.30 | > 6.30 | C=Cc1cc(-c2cc(C#N)c(N3CCN(C(=O)C4CC4)[C@H](C4CC4)C3)nc2C2CC2)ccn1 [Compound 485, (R)-6-(4-(cyclopropanecarbonyl)-3-cyclopropylpiperazin-1-yl)-2-cyclopropyl-2′-vinyl-3,4′-bipyridine-5-carbonitrile]
15 | > 6.30 | > 6.30 | > 6.30 | C=Cc1cnc2c(-c3c(C4CC4)nc(N4CCN(C(=O)CCOC)[C@H](C(C)C)C4)c(C#N)c3C)cccc2n1 [Compound 765, 6-cyclopropyl-2-((R)-3-isopropyl-4-(3-methoxypropanoyl)piperazin-1-yl)-4-methyl-5-(2-vinylquinoxalin-5-yl)nicotinonitrile]
16 | > 6.30 | > 6.30 | > 6.30 | C=Cc1cc(-c2cc(C#N)c(N3CCN(C(=O)CC4CCO4)[C@H](C)C3)nc2C2CC2)ccn1 (stereo partly drawn) [Compound 649, 2-cyclopropyl-6-((3R)-3-methyl-4-(2-(oxetan-2-yl)acetyl)piperazin-1-yl)-2′-vinyl-[3,4′-bipyridine]-5-carbonitrile]
17 | > 6.30 | > 6.30 | > 6.30 | C=Cc1cc(Nc2cc(C#N)c(N3CCN(C(=O)CCOC)[C@H](C)C3)nc2C2CC2)ccn1 [Compound 642, (R)-6-cyclopropyl-2-(4-(3-methoxypropanoyl)-3-methylpiperazin-1-yl)-5-((2-vinylpyridin-4-yl)amino)nicotinonitrile]
18 | > 6.30 | > 6.30 | > 6.30 | C=Cc1cc(-c2cc(C#N)c(N3CCN(C(=O)CCO)[C@H](C4CC4)C3)nc2C2CC2)nc(N)n1 [Compound 719, (R)-5-(2-amino-6-vinylpyrimidin-4-yl)-6-cyclopropyl-2-(3-cyclopropyl-4-(3-hydroxypropanoyl)piperazin-1-yl)nicotinonitrile]
19 | > 6.30 | > 6.30 | 6.00 to 6.30 | COCCC(=O)N1CCN(c2nc(C3CC3)c(-c3ccc4ncsc4c3)cc2C#N)C[C@H]1C [Compound 364, (R)-5-benzothiazol-6-yl-6-cyclopropyl-2-[4-(3-methoxy-propionyl)-3-methyl-piperazin-1-yl]-nicotinonitrile]
20 | > 6.30 | > 6.30 | > 6.30 | C=Cc1cc(-c2cc(C#N)c(N3CCN(C(=O)CCO)[C@H](C)C3)nc2C2CC2)ccn1 [Compound 500]
21 | > 6.30 | > 6.30 | > 6.30 | C=CC(=O)N1CCC=C(c2cc(C#N)c(N3CCN(C(=O)CCO)[C@H](C4CC4)C3)nc2C2CC2)C1 [Compound 727, (R)-5-(1-acryloyl-1,2,5,6-tetrahydropyridin-3-yl)-6-cyclopropyl-2-(3-cyclopropyl-4-(3-hydroxypropanoyl)piperazin-1-yl)nicotinonitrile]
